Legend:
[1] = Microsome clearance assay, rat; settings: microsomes
Protocol: (§1) Incubations at a test compound of 1 mM in microsomes (0.5 mg/mL) plus cofactor NADPH are performed in 96 well plates at 37° C. on a TECAN (Tecan Group Ltd, Switzerland) automated liquid handling system. The final concentration of the test compound in the incubation is 1 microM. After a 10 minutes preincubation step of the test compound with the microsomes, the enzymatic reaction is started by the addition of cofactors. At 1, 3, 6, 9, 15, 25, 35 and 45 minutes, aliquots of the incubations are removed and quenched with 1:3 (v/v) acetonitrile containing internal standards. Samples are then cooled and centrifuged before analysis of the supernatant by LC-MS/MS.

[2] = Microsome clearance assay, mouse; settings: microsomes
Protocol: as §1

[3] = Microsome clearance assay, human; settings: microsomes
Protocol: as §1

[4] = target: human GPR17 short isoform (Homo sapiens (Human), UniProt Q13304); assay: GPR17 cAMP assay (hGPR17 cAMP, antagonist mode against EC80 of MDL29,951); format: cell-based; settings: CHO-K1 cells stably expressing human GPR17 short isoform; EC80 of agonist MDL29,951; forskolin 15 μM
Outline: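 cAMP was read by competitive TR-FRET after a 30 min room-temperature stimulation: antagonists plus EC80 MDL29,951 and 0.5 mM IBMX, followed 5 min later by 15 μM forskolin. Cells were CHO-K1 with stable human GPR17 short isoform in HBSS/HEPES/BSA, pH 7.4; percent activity versus reference antagonist fitted sigmoidally.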

human GPR17 short isoform, sequence (Q13304 29-367): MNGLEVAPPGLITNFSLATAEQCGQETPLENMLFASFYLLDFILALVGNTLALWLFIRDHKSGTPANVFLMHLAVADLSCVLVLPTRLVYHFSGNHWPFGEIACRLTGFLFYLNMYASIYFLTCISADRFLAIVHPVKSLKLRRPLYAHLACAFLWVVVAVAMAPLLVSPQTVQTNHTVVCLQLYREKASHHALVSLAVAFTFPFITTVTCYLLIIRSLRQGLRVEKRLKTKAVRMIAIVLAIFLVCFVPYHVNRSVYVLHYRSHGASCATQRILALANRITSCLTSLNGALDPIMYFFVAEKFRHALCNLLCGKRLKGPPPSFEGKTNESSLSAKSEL

SMILES | IC50 [4] [nM] | other results
COc1nc(NS(=O)(=O)c2c[nH]c3c(F)c(Cl)ccc23)ncc1OCC(F)F [Example 123, 6-chloro-N-[5-(2,2-difluoroethoxy)-4-methoxy-pyrimidin-2-yl]-7-fluoro-1H-indole-3-sulfonamide] | 91 | microsomal CLint at 1 µM [1]: 10 µL/min/mg; microsomal CLint at 1 µM [2]: 10 µL/min/mg; microsomal CLint at 1 µM [3]: 10 µL/min/mg
COc1nc(NS(=O)(=O)c2c[nH]c3cc(Cl)ccc23)ncc1CC(F)F [Example 47, 6-chloro-N-[5-(2,2-difluoroethyl)-4-methoxy-pyrimidin-2-yl]-1H-indole-3-sulfonamide] | 19 | microsomal CLint at 1 µM [1]: 110 µL/min/mg; microsomal CLint at 1 µM [2]: 10 µL/min/mg; microsomal CLint at 1 µM [3]: 10 µL/min/mg
COc1nc(NS(=O)(=O)c2c[nH]c3c(F)c(Cl)ccc23)c(F)cc1OCC(F)F [RE-B, reference compound] | – | microsomal CLint at 1 µM [1]: 65 µL/min/mg; microsomal CLint at 1 µM [2]: 26 µL/min/mg; microsomal CLint at 1 µM [3]: 11 µL/min/mg
COc1nc(NS(=O)(=O)c2c[nH]c3cc(Cl)ccc23)c(F)cc1CCC#N [RE-D, 6-chloro-N-[5-(2-cyanoethyl)-3-fluoro-6-methoxy-2-pyridyl]-1H-indole-3-sulfonamide, reference compound] | – | microsomal CLint at 1 µM [1]: 869 µL/min/mg; microsomal CLint at 1 µM [2]: 121 µL/min/mg; microsomal CLint at 1 µM [3]: 103 µL/min/mg
COc1nc(NS(=O)(=O)c2c[nH]c3cc(Cl)ccc23)c(F)cc1CC(F)F [RE-C, 6-chloro-N-[5-(2,2-difluoroethyl)-3-fluoro-6-methoxy-2-pyridyl]-1H-indole-3-sulfonamide, reference compound] | – | microsomal CLint at 1 µM [1]: 286 µL/min/mg; microsomal CLint at 1 µM [2]: 81 µL/min/mg; microsomal CLint at 1 µM [3]: 35 µL/min/mg
COc1nc(NS(=O)(=O)c2c[nH]c3cc(Cl)ccc23)ncc1OCC(F)F [Example 135, 6-chloro-N-[5-(2,2-difluoroethoxy)-4-methoxy-pyrimidin-2-yl]-1H-indole-3-sulfonamide] | 187 | –
COc1nc(NS(=O)(=O)c2c[nH]c3cc(C)ccc23)ncc1CC(F)F [Example 182, N-[5-(2,2-difluoroethyl)-4-methoxy-pyrimidin-2-yl]-6-methyl-1H-indole-3-sulfonamide] | 101 | –
COc1nc(NS(=O)(=O)c2c[nH]c3cc(Cl)ccc23)ncc1OC(F)(F)C(F)Cl (centres unmarked) [Example 44, 6-chloro-N-[5-(2-chloro-1,1,2-trifluoro-ethoxy)-4-methoxy-pyrimidin-2-yl]-1H-indole-3-sulfonamide] | 131 | –
COc1nc(NS(=O)(=O)c2c[nH]c3c(OC)c(Br)ccc23)ncc1CC(F)F [Example 196, 6-bromo-N-[5-(2,2-difluoroethyl)-4-methoxy-pyrimidin-2-yl]-7-methoxy-1H-indole-3-sulfonamide] | 16 | –
COc1nc(NS(=O)(=O)c2c[nH]c3c(SC(F)F)c(Cl)ccc23)nc(OC)c1CCC#N [Example 107, 6-chloro-N-[5-(2-cyanoethyl)-4,6-dimethoxy-pyrimidin-2-yl]-7-(difluoromethylthio)-1H-indole-3-sulfonamide] | 12 | –
COc1nc(NS(=O)(=O)c2c[nH]c3cc(Cl)ccc23)ncc1OCCC(F)F [Example 39, 6-chloro-N-[5-(3,3-difluoropropoxy)-4-methoxy-pyrimidin-2-yl]-1H-indole-3-sulfonamide] | 287 | –
COc1nc(NS(=O)(=O)c2c[nH]c3c(Br)c(Cl)ccc23)ncc1CC(F)F [Example 142, 7-bromo-6-chloro-N-[5-(2,2-difluoroethyl)-4-methoxy-pyrimidin-2-yl]-1H-indole-3-sulfonamide] | 29 | –
COc1nc(NS(=O)(=O)c2c[nH]c3cc(Cl)ccc23)ncc1OCC#N [Example 267, 6-chloro-N-[5-(cyanomethoxy)-4-methoxy-pyrimidin-2-yl]-1H-indole-3-sulfonamide] | 49 | –
COc1nc(NS(=O)(=O)c2c[nH]c3nc(Br)ccc23)nc(OC)c1OC(F)F [Example 172, 6-bromo-N-[5-(difluoromethoxy)-4,6-dimethoxy-pyrimidin-2-yl]-1h-pyrrolo[2,3-b]pyridine-3-sulfonamide] | 15 | –
COc1nc(NS(=O)(=O)c2c[nH]c3cc(Cl)ccc23)ncc1C1COC1 [Example 50, 6-chloro-N-[4-methoxy-5-(oxetan-3-yl)pyrimidin-2-yl]-1H-indole-3-sulfonamide] | 2790 | –
COc1nc(NS(=O)(=O)c2c[nH]c3cc(Cl)ccc23)ncc1C#N [Example 23, 6-chloro-N-(5-cyano-4-methoxy-pyrimidin-2-yl)-1H-indole-3-sulfonamide] | 256 | –
CC#Cc1cnc(NS(=O)(=O)c2c[nH]c3cc(Cl)ccc23)nc1OC [Example 29, 6-chloro-n-(4-methoxy-5-prop-1-ynyl-pyrimidin-2-yl)-1h-indole-3-sulfonamide] | 80 | –
COc1nc(NS(=O)(=O)c2c[nH]c3cc(Cl)c(F)cc23)ncc1CC(F)F [Example 185, 6-chloro-N-[5-(2,2-difluoroethyl)-4-methoxy-pyrimidin-2-yl]-5-fluoro-1H-indole-3-sulfonamide] | 89 | –

SMILES | IC50 [4] [nM] | other results
O=S(=O)(Nc1ncc(OCC(F)F)c(Cl)n1)c1c[nH]c2cc(Cl)ccc12 [Example 76, 6-chloro-N-[4-chloro-5-(2,2-difluoroethoxy)pyrimidin-2-yl]-1H-indole-3-sulfonamide] | 916 | –
COc1nc(NS(=O)(=O)c2csc3c(F)c(Cl)ccc23)ncc1CC(F)F [Example 162, 6-chloro-N-[5-(2,2-difluoroethyl)-4-methoxy-pyrimidin-2-yl]-7-fluoro-benzothiophene-3-sulfonamide] | 248 | –
COc1nc(NS(=O)(=O)c2csc3nc(Br)ccc23)nc(OC)c1C [Example 144, 6-bromo-N-(4,6-dimethoxy-5-methyl-pyrimidin-2-yl)thieno[2,3-b]pyridine-3-sulfonamide] | 50 | –
COc1nc(NS(=O)(=O)c2c[nH]c3c2ccc2cccnc23)nc(OC)c1OCC(F)F [Example 168, N-[5-(2,2-difluoroethoxy)-4,6-dimethoxy-pyrimidin-2-yl]-1H-pyrrolo[3,2-h]quinoline-3-sulfonamide] | 26 | –
COc1nc(NS(=O)(=O)c2c[nH]c3nc(Br)ccc23)nc(OC)c1OCC(F)F [Example 202, 6-bromo-N-[5-(2,2-difluoroethoxy)-4,6-dimethoxy-pyrimidin-2-yl]-1H-pyrrolo[2,3-b]pyridine-3-sulfonamide] | 28 | –
COc1nc(NS(=O)(=O)c2c[nH]c3c(SC(F)F)c(Cl)ccc23)ncc1CCC#N [Example 105, 6-chloro-N-[5-(2-cyanoethyl)-4-methoxy-pyrimidin-2-yl]-7-(difluoromethylthio)-1H-indole-3-sulfonamide] | 14 | –
COc1nc(NS(=O)(=O)c2c[nH]c3nc(Br)ccc23)ncc1OC(F)(F)CF [Example 231, 6-bromo-N-[4-methoxy-5-(1,1,2-trifluoroethoxy)pyrimidin-2-yl]-1H-pyrrolo[2,3-b]pyridine-3-sulfonamide] | 21 | –
COc1nc(NS(=O)(=O)c2c[nH]c3c([S+](C)[O-])c(Cl)ccc23)nc(OC)c1CC(F)F (centres unmarked) [Example 279, 6-chloro-N-[5-(2,2-difluoroethyl)-4,6-dimethoxy-pyrimidin-2-yl]-7-methylsulfinyl-1H-indole-3-Sulfonamide] | 69 | –
Cc1nc(NS(=O)(=O)c2c[nH]c3cc(Cl)ccc23)nc(C)c1Br [Example 33, N-(5-bromo-4,6-dimethyl-pyrimidin-2-yl)-6-chloro-1H-indole-3-sulfonamide] | 569 | –
COc1nc(NS(=O)(=O)c2c[nH]c3c(C(F)F)c(Cl)ccc23)ncc1CC(F)F [Example 214, 6-chloro-N-[5-(2,2-difluoroethyl)-4-methoxy-pyrimidin-2-yl]-7-(difluoromethyl)-1H-indole-3-sulfonamide] | 38 | –
COc1nc(NS(=O)(=O)c2c[nH]c3cc(Cl)ccc23)nc(OC2CC2)c1Br [Example 71, N-[5-bromo-4-(cyclopropoxy)-6-methoxy-pyrimidin-2-yl]-6-chloro-1H-indole-3-sulfonamide] | 11500 | –
COCCOc1nc(NS(=O)(=O)c2c[nH]c3cc(Cl)ccc23)nc(OC)c1Br [Example 70, N-[5-bromo-4-methoxy-6-(2-methoxyethoxy)pyrimidin-2-yl]-6-chloro-1H-indole-3-sulfonamide] | 2740 | –
COc1nc(NS(=O)(=O)c2csc3nc(C(F)F)ccc23)ncc1CC(F)F [Example 166, N-[5-(2,2-difluoroethyl)-4-methoxy-pyrimidin-2-yl]-6-(difluoromethyl)thieno[2,3-b]pyridine-3-sulfonamide] | 1160 | –
COc1nc(NS(=O)(=O)c2csc3nc(Br)ccc23)ncc1CCC#N [Example 149, 6-bromo-N-[5-(2-cyanoethyl)-4-methoxy-pyrimidin-2-yl]thieno[2,3-b]pyridine-3-sulfonamide] | 147 | –
COc1nc(NS(=O)(=O)c2c[nH]c3cc(Cl)ccc23)c(F)cc1OCCF [RE-A, 6-chloro-N-[3-fluoro-5-(2-fluoroethoxy)-6-methoxy-2-pyridyl]-1H-indole-3-sulfonamide, reference compound] | – | microsomal CLint at 1 µM [1]: 357 µL/min/mg; microsomal CLint at 1 µM [2]: 77 µL/min/mg; microsomal CLint at 1 µM [3]: 121 µL/min/mg
COc1nc(NS(=O)(=O)c2c[nH]c3c(Cl)c(Cl)ccc23)ncc1CC(F)F [Example 210, 6,7-dichloro-N-[5-(2,2-difluoroethyl)-4-methoxy-pyrimidin-2-yl]-1H-indole-3-sulfonamide] | 18 | –
COc1nc(NS(=O)(=O)c2c[nH]c3cc(Cl)ccc23)nc(OC)c1C#N [Example 32, 6-chloro-N-(5-cyano-4,6-dimethoxy-pyrimidin-2-yl)-1H-indole-3-sulfonamide] | 232 | –
COc1nc(NS(=O)(=O)c2c[nH]c3nc(Cl)ccc23)nc(OC)c1Br [Example 31, N-(5-bromo-4,6-dimethoxy-pyrimidin-2-yl)-6-chloro-1h-pyrrolo[2,3-b]pyridine-3-sulfonamide] | 76 | –

From patent US20240025883A1, “PYRIMIDIN-2-YL SULFONAMIDE DERIVATIVES” (Hoffmann-La Roche Inc., priority 2021, published 2024)
